Laboratory results: patent US10336762B2 (priority 2017, dated 2019)
Where two headings read alike, the source gives them in different places.

What was measured:
IRAK4 enzyme = IRAK4 enzyme (Homo sapiens (Human), UniProt Q9NWZ3); test: biochemical; type: biochemical; details: IRAK4 enzyme, 500 μM ATP
TNFα = test: cells; type: cell-based, human; details: LPS-stimulated human monocytes, read-out: EC50 TNF
[1] = Homo sapiens, Monocyte, TNFα content

IRAK4 enzyme, sequence (Q9NWZ3 whole entry): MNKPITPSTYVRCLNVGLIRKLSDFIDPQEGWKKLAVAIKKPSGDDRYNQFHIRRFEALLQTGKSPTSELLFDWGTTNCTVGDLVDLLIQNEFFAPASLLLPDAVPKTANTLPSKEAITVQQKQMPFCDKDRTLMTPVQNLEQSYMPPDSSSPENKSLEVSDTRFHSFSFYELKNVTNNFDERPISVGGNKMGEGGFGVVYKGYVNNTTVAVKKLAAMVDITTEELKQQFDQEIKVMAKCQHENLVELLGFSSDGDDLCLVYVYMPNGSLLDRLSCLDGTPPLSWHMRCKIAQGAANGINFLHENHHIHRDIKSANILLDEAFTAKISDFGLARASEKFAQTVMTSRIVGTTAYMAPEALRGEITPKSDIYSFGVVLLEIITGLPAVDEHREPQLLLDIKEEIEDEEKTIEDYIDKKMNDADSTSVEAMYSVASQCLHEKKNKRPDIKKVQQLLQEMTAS

## COC(=O)NCC1(O)CC(Nc2cc(-c3ccc4cc(C#N)cnn34)ncc2C(=O)NC[C@@H](F)C(C)(C)O)C1 (single isomer, unassigned) [Example 759]
IRAK4 enzyme; TR-FRET (HTRF)
  IC50: 3 nM
TNFα; TNFα content
  EC50: > 10000 nM

## COC(=O)NCC1(O)CC(Nc2cc(-c3ccc4cc(C#N)cnn34)ncc2C(=O)NC[C@@H](F)C(C)(C)O)C1 (single isomer, unassigned) [Example 760]
IRAK4 enzyme; TR-FRET (HTRF)
  IC50: < 1 nM
TNFα; TNFα content
  EC50: 33 nM

## COC(=O)NCC1(F)CC(Nc2cc(-c3ccc4cc(C#N)cnn34)ncc2C(=O)NC[C@@H](F)C(C)(C)O)C1 (single isomer, unassigned) [Example 764]
IRAK4 enzyme; TR-FRET (HTRF)
  IC50: < 1 nM
TNFα; TNFα content
  EC50: 8 nM

## COC(=O)NCC1(F)CC(Nc2cc(-c3ccc4cc(C#N)cnn34)ncc2C(=O)NC[C@@H](F)C(C)(C)O)C1 (single isomer, unassigned) [Example 765]
IRAK4 enzyme; TR-FRET (HTRF)
  IC50: 6 nM
TNFα; TNFα content
  EC50: 323 nM

## CC(C)(O)[C@H](F)CNC(=O)c1cnc(-c2ccc3cc(C#N)cnn23)cc1Nc1cnn(C2CNCC2(F)F)c1 (single isomer, unassigned) [Example 868]
IRAK4 enzyme; TR-FRET
  IC50: < 1 nM
TNFα; TNFα by TR-FRET
  EC50: 53 nM

## CC(C)(O)[C@H](F)CNC(=O)c1cnc(-c2ccc3cc(C#N)cnn23)cc1Nc1cnn(C2CNCC2(F)F)c1 (single isomer, unassigned) [Example 869]
IRAK4 enzyme; TR-FRET
  IC50: < 1 nM
TNFα; TNFα by TR-FRET
  EC50: 14 nM

## CC1(Nc2cc(-c3ccc4cc(C#N)cnn34)ncc2C(=O)NC[C@@H](F)C(C)(C)O)COC1 [Example 1, (R)-6-(3-cyanopyrrolo[1,2-b]pyridazin-7-yl)-N-(2-fluoro-3-hydroxy-3-methylbutyl)-4-((3-methyloxetan-3-yl)amino)nicotinamide]
IRAK4 enzyme; TR-FRET
  IC50: < 1 nM
TNFα; [1]
  EC50: 32 nM

## CC(C)(O)[C@H](F)CNC(=O)c1cnc(-c2ccc3cc(C#N)cnn23)cc1N[C@H]1CCC[C@@H](O)C1 [Example 2, 6-(3-cyanopyrrolo[1,2-b]pyridazin-7-yl)-N-((R)-2-fluoro-3-hydroxy-3-methylbutyl)-4-(((1S,3R)-3-hydroxycyclohexyl)amino)nicotinamide]
IRAK4 enzyme; TR-FRET
  IC50: < 1 nM
TNFα; [1]
  EC50: 9 nM

## CC(C)Nc1cc(-c2ccc3cc(C#N)cnn23)ncc1C(=O)N[C@H]1CC[C@H](C(C)(C)O)CC1 [Example 3, 6-(3-cyanopyrrolo[1,2-b]pyridazin-7-yl)-N-((1r,4r)-4-(2-hydroxypropan-2-yl)cyclohexyl)-4-(isopropylamino)nicotinamide]
IRAK4 enzyme; TR-FRET
  IC50: < 1 nM
TNFα; [1]
  EC50: 62 nM

## CC(C)(O)[C@H](F)CNC(=O)c1cnc(-c2ccc3cc(C#N)cnn23)cc1Nc1cccnc1 [Example 4, (R)-6-(3-cyanopyrrolo[1,2-b]pyridazin-7-yl)-N-(2-fluoro-3-hydroxy-3-methylbutyl)-4-(pyridin-3-ylamino)nicotinamide]
IRAK4 enzyme; TR-FRET
  IC50: < 1 nM
TNFα; [1]
  EC50: 33 nM

## CC(C)Nc1cc(-c2ccc3cc(C#N)cnn23)ncc1C(=O)NC1CC2(C1)CC(C(C)(C)O)C2 (stereo not shown) [Example 5, 6-(3-cyanopyrrolo[1,2-b]pyridazin-7-yl)-N-(6-(2-hydroxypropan-2-yl)spiro[3.3]heptan-2-yl)-4-(isopropylamino)nicotinamide]
IRAK4 enzyme; TR-FRET
  IC50: < 1 nM
TNFα; [1]
  EC50: 207 nM

## CC(C)Nc1cc(-c2ccc3cc(C#N)cnn23)ncc1C(=O)NC1CCOCC1 [Example 6, 6-(3-cyanopyrrolo[1,2-b]pyridazin-7-yl)-4-(isopropylamino)-N-(tetrahydro-2H-pyran-4-yl)nicotinamide]
IRAK4 enzyme; TR-FRET
  IC50: 5 nM
TNFα; [1]
  EC50: 152 nM

## CC(C)Nc1cc(-c2ccc3cc(C#N)cnn23)ncc1C(=O)NC1COC1 [Example 7, 6-(3-cyanopyrrolo[1,2-b]pyridazin-7-yl)-4-(isopropylamino)-N-(oxetan-3-yl)nicotinamide]
IRAK4 enzyme; TR-FRET
  IC50: 5 nM
TNFα; [1]
  EC50: 442 nM

## CC(C)(O)[C@H](F)CNC(=O)c1cnc(-c2ccc3cc(C#N)cnn23)cc1NC1CNC(=O)C1 (stereo partly drawn) [Example 8, 6-(3-cyanopyrrolo[1,2-b]pyridazin-7-yl)-N-((R)-2-fluoro-3-hydroxy-3-methylbutyl)-4-((5-oxopyrrolidin-3-yl)amino)nicotinamide]
IRAK4 enzyme; TR-FRET
  IC50: < 1 nM
TNFα; [1]
  EC50: 774 nM

## CC(C)Nc1cc(-c2ccc3cc(C(N)=O)cnn23)ncc1C(=O)NCC1CCS(=O)(=O)C1 (stereo not shown) [Example 9, 7-(5-(((1,1-dioxidotetrahydrothiophen-3-yl)methyl)carbamoyl)-4-(isopropylamino)pyridin-2-yl)pyrrolo[1,2-b]pyridazine-3-carboxamide]
IRAK4 enzyme; TR-FRET
  IC50: 16 nM
TNFα; [1]
  EC50: 5100 nM

## CC(C)(O)[C@H](F)CNC(=O)c1cnc(-c2ccc3cc(C#N)cnn23)cc1NS(C)(=O)=O [Example 10, (R)-6-(3-cyanopyrrolo[1,2-b]pyridazin-7-yl)-N-(2-fluoro-3-hydroxy-3-methylbutyl)-4-(methylsulfonamido)nicotinamide]
IRAK4 enzyme; TR-FRET
  IC50: 234 nM
TNFα; [1]
  EC50: > 10000 nM

## CC(C)(O)[C@H](F)CNC(=O)c1cnc(-c2ccc3cc(C#N)cnn23)cc1N [Example 11, (R)-4-amino-6-(3-cyanopyrrolo[1,2-b]pyridazin-7-yl)-N-(2-fluoro-3-hydroxy-3-methylbutyl)nicotinamide]
IRAK4 enzyme; TR-FRET
  IC50: 7 nM
TNFα; [1]
  EC50: 1040 nM

## CC(C)Nc1cc(-c2ccc3cc(C#N)cnn23)ncc1C(=O)N[C@H]1CC[C@H](N)CC1 [Example 12, N-((1r,4r)-4-aminocyclohexyl)-6-(3-cyanopyrrolo[1,2-b]pyridazin-7-yl)-4-(isopropylamino)nicotinamide]
IRAK4 enzyme; TR-FRET
  IC50: 2 nM
TNFα; [1]
  EC50: 97 nM

## CC(=O)N[C@H]1CC[C@H](NC(=O)c2cnc(-c3ccc4cc(C#N)cnn34)cc2NC(C)C)CC1 [Example 13, N-((1r,4r)-4-acetamidocyclohexyl)-6-(3-cyanopyrrolo[1,2-b]pyridazin-7-yl)-4-(isopropylamino)nicotinamide]
IRAK4 enzyme; TR-FRET
  IC50: < 1 nM
TNFα; [1]
  EC50: 79 nM

## CC(C)(O)[C@H](F)CNC(=O)c1cnc(-c2ccc3cc(C#N)cnn23)cc1NC1CC2CCC(C1)N2 (stereo partly drawn) [Example 14, 4-(((1R,3r,5S)-8-azabicyclo[3.2.1]octan-3-yl)amino)-6-(3-cyanopyrrolo[1,2-b]pyridazin-7-yl)-N-((R)-2-fluoro-3-hydroxy-3-methylbutyl)nicotinamide]
IRAK4 enzyme; TR-FRET
  IC50: 3 nM
TNFα; [1]
  EC50: 626 nM

## CC(C)(O)[C@H](F)CNC(=O)c1cnc(-c2ccc3cc(C#N)cnn23)cc1NC1CC2CCC(C1)N2S(C)(=O)=O (stereo partly drawn) [Example 15, 6-(3-cyanopyrrolo[1,2-b]pyridazin-7-yl)-N-((R)-2-fluoro-3-hydroxy-3-methylbutyl)-4-(((1R,3r,5S)-8-(methylsulfonyl)-8-azabicyclo[3.2.1]octan-3-yl)amino)nicotinamide]
IRAK4 enzyme; TR-FRET
  IC50: 4 nM
TNFα; TNFα content
  EC50: 302 nM

## CC(=O)N1CCC(Nc2cc(-c3ccc4cc(C#N)cnn34)ncc2C(=O)NC[C@@H](F)C(C)(C)O)CC1 [Example 16, (R)-4-((1-acetylpiperidin-4-yl)amino)-6-(3-cyanopyrrolo[1,2-b]pyridazin-7-yl)-N-(2-fluoro-3-hydroxy-3-methylbutyl)nicotinamide]
IRAK4 enzyme; TR-FRET
  IC50: 2 nM
TNFα; [1]
  EC50: 204 nM

## CC(C)Nc1cc(-c2ccc3cc(-c4nnn[nH]4)cnn23)ncc1C(=O)NC[C@@H](F)C(C)(C)O [Example 17, (R)-6-(3-(1H-tetrazol-5-yl)pyrrolo[1,2-b]pyridazin-7-yl)-N-(2-fluoro-3-hydroxy-3-methylbutyl)-4-(isopropylamino)nicotinamide]
IRAK4 enzyme; TR-FRET
  IC50: 24 nM
TNFα; [1]
  EC50: 5200 nM
